Results reported in patent publication US20140186268A1, “Oxide Ferrimagnetics with Spinel Structure Nanoparticles and Iron Oxide Nanoparticles, Biocompatible Aqueous Colloidal Systems Comprising Nanoparticles, Ferriliposomes, and Uses Thereof” (priority 2011, published 2014).

Columns and labels:
[1] = tested on: orthotopic allograft mouse breast cancer model; assay: Doxorubicin treatment, orthotopic allograft mouse breast cancer model; assay type: in vivo; conditions: single dose 15 mg/kg, two weeks after administration
Description: Doxorubicin hydrochloride (Sigma) was dissolved in ferromagnetic iron oxide nanoparticles containing stabilizing buffer and then encapsulated into PEGylated liposomes. Three weeks after transplantations of primary cells (average tumour volume 75 mm^3) ferriliposomes loaded with doxorubicin were administered at a dose of 15 mg/kg (Dox+FLt, n=4). Magnets of 0.33 T (diameter 4.5 mm) were glued to the tumour by cyanoacrylate before injection and removed by acetone 24 hours after administration. Control group was treated with systemic administration of doxorubicin without any targeting (Dox, n=4). The horizontal and vertical tumour diameters were measured by digital calliper twice per week and volumes were calculated using the formula V=(a×b2)π/6 where a and b are the longer and shorter diameter of the tumour, respectively.

[2] = design: species or system rats; conditions: rat, in vivo, 500 mg/kg
Description: Female rats were treated with 500 mg/kg of iron oxide nanoparticles (n=16) and stabilizing buffer (n=8) as control. […] were sacrificed at day 7 and 12 after injection. Blood was collected and serum separation performed by centrifugation in Li-heparin 0.6 ml flasks (Fuji Photo Film Co., Ltd. Life Science Products Division). Biochemical parameters of creatinine, urea nitrogen, alanine transaminase, aspartate transaminase, creatine phosphokinase and total bilirubin in blood were analyzed by biochemical analyzer Fujifilm DRI CHEM 3500i (Fuji Photo Film Co., Ltd. Life Science Products Division). The kidneys, spleen, liver, heart and lung tissues were collected and fixed in 10% neutral formalin. Organs were dehydrated and maintained in paraffin blocks. 5 μm paraffin sections were stained by hematoxylin and eosin for histo-pathological analysis. iron oxide nanoparticles were detected in animal tissues by Prussian blue staining with carmine (Sigma).

| Molecule | reduction of tumour volume [1] | histo-pathological analysis of lung, liver, kidney and spleen [2] |
| --- | --- | --- |
| COc1cccc2c1C(=O)c1c(O)c3c(c(O)c1C2=O)C[C@@](O)(C(=O)CO)C[C@@H]3O[C@H]1C[C@H](N)[C@H](O)[C@H](C)O1 [doxorubicin] | 60% | – |
| Fe3O4 [iron oxide nanoparticles] | – | No morphological changes |
